Data published in PubChem BioAssay (NCI).
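Briefly, cells in 96-well plates were exposed to five compound concentrations for 48 h, and endpoints were estimated by linear interpolation. Abbreviation: GI50, concentration required for 50% inhibition of growth. At the TGI there is no net growth.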

Experiments:
Assay in all cases: growth of human tumour cells (NCI), 48 h
CCRF-CEM leukemia = tested on: CCRF-CEM leukemia
DU-145 prostate = tested on: DU-145 prostate
M14 melanoma = tested on: M14 melanoma
MDA-MB-435 = tested on: MDA-MB-435
MOLT-4 leukemia = tested on: MOLT-4 leukemia
NCI-H522 lung = tested on: NCI-H522 lung
NCI/ADR-RES ovarian = tested on: NCI/ADR-RES ovarian
OVCAR-5 ovarian = tested on: OVCAR-5 ovarian
RPMI-8226 leukemia = tested on: RPMI-8226 leukemia
SN12C renal = tested on: SN12C renal

SMILES	GI50 (CCRF-CEM leukemia) [µM]	TGI (CCRF-CEM leukemia) [µM]	GI50 (DU-145 prostate) [µM]	TGI (DU-145 prostate) [µM]	GI50 (M14 melanoma) [µM]	TGI (M14 melanoma) [µM]	GI50 (MDA-MB-435) [µM]	TGI (MDA-MB-435) [µM]	GI50 (MOLT-4 leukemia) [µM]	TGI (MOLT-4 leukemia) [µM]	GI50 (NCI-H522 lung) [µM]	TGI (NCI-H522 lung) [µM]	GI50 (NCI/ADR-RES ovarian) [µM]	TGI (NCI/ADR-RES ovarian) [µM]	GI50 (OVCAR-5 ovarian) [µM]	TGI (OVCAR-5 ovarian) [µM]	GI50 (RPMI-8226 leukemia) [µM]	TGI (RPMI-8226 leukemia) [µM]	GI50 (SN12C renal) [µM]	TGI (SN12C renal) [µM]
Cc1[nH]c(/C=C2\C(=O)Nc3ccc(F)cc32)c(C)c1C(=O)NC[C@H](O)CN1CCOCC1	0.0624	> 10	3.65	> 10	0.943	> 10	3.2	> 10	2.61	> 10	> 10	> 10	> 10	> 10	2.85	> 10	3.54	> 10	3.05	> 10
C[N+](C)(CCCCCC[N+](C)(C)CCCN1C(=O)c2cc3ccccc3cc2C1=O)CCCN1C(=O)c2ccccc2C1=O	> 37.5	> 37.5	> 37.5	> 37.5	> 37.5	> 37.5	> 37.5	> 37.5	> 37.5	> 37.5	> 37.5	> 37.5	> 37.5	> 37.5	> 37.5	> 37.5	> 37.5	> 37.5	> 37.5	> 37.5
CC(C)(O)C1OCC(C2CCC3(C)C4=CCC5C(C)(C)C(O)CCC5(C)C4CCC23C)CC1O (stereo not given)		> 100		31.1		> 100		28.8		41.9		23.6		27		39.6		77.8		27.5
COc1cc2c(/C=C3/C(=O)Nc4ccccc43)c(Cl)n(Cc3ccccc3[N+](=O)[O-])c2cc1C	5.62	> 100	6.74	> 100	6.35	30.2	3.39	15.6	5.51	70.3	12.2	35.3	4.71	20.3	15.6	35.4	3.49	> 100	9.42	56.1
Cc1ccc2c(N)c(C(=O)N[C@H]3CCc4cc(N5CC6CCC(C5)N6)ccc4C3)sc2n1	0.228	> 33	0.165	1.48	0.307	1.82	0.359	2.34	0.174	4.49	0.265	1.59	0.798	2.76	0.47	3	0.764	3.42	0.263	1.8
COc1ccc(-c2nc(-c3ccccc3)c(-c3ccccc3)n2C2CC2)cc1OC1CCCC1	33.3	> 165	94.5	> 165	163	> 165	147	> 165	45.7	> 165	62.1	> 165	58.6	> 165	> 165	> 165	48.8	> 165	128	> 165
Cc1cc2c(F)c(Oc3ncnn4cc(OC[C@@H](C)OC(=O)[C@H](C)N)c(C)c34)ccc2[nH]1	5.96	23.1	11.7	24.2	12.3	25.7	11.3	23.8	7.25	23.5	11.1	24.7	9.79	30.2	14.9	29.2	5.94	23.7	12.6	26.2
COc1c(O)ccc2c1CN1CCc3cc4c(cc3C1C2)OCO4 (stereo not given)		> 100		> 100		> 100		> 60.9		> 100		36.1		90.2		> 100		> 100		> 84.4
CC(NNC(=S)N1CCCCCC1)c1ccc2ccccc2n1 (stereo not given)	0.765	> 100	2.22	18.2	1.85	11.7	2.25	21.4	2.18	> 55.5	2.69	21.6	2.29	> 100	9.5	38.5	5.36	> 100	1.84	> 57.3
